Measurements: article PMC12155096 (International Journal of Molecular Sciences, 2025)

Experiments:
[1] = target: human CYP2C9 (Homo sapiens, UniProt P11712)
[2] = target: human CYP2C19 (Homo sapiens, UniProt P33261)
[3] = target: CYP3A4 (Homo sapiens, UniProt P08684)
[4] = target: T1, human CYP1A2 (Homo sapiens, UniProt P05177)
T1 sequence (P05177 1-516): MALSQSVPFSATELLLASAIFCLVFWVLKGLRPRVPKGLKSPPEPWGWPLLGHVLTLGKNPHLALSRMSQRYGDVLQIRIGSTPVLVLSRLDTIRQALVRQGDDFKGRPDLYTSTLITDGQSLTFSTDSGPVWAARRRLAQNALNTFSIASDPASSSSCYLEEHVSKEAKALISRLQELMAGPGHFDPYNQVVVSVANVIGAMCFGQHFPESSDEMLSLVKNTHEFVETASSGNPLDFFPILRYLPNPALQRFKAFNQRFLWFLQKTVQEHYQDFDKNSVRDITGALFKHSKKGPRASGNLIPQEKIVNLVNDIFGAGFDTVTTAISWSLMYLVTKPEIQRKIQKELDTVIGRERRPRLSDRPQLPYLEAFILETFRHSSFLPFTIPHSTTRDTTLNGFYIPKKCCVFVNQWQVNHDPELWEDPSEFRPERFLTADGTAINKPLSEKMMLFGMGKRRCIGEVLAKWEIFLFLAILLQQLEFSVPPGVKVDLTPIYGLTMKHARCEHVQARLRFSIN

[5] = target: human CYP2D6 (Homo sapiens, UniProt P10635)
Sequence of human CYP2D6 (P10635 whole entry): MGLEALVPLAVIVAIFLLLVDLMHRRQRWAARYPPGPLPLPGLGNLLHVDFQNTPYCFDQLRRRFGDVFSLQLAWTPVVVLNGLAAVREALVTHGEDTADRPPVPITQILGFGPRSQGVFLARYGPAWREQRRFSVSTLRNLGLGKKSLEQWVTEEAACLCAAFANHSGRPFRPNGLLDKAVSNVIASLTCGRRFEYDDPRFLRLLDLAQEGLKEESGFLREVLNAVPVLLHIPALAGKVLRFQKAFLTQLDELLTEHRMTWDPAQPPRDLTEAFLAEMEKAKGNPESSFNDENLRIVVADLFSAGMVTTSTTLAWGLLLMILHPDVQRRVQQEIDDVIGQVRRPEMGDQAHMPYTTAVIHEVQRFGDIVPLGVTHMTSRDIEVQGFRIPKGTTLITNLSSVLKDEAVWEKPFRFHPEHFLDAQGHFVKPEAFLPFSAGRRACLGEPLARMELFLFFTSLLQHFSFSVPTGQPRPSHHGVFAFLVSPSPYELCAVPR

Sequence of CYP3A4 (P08684 whole entry): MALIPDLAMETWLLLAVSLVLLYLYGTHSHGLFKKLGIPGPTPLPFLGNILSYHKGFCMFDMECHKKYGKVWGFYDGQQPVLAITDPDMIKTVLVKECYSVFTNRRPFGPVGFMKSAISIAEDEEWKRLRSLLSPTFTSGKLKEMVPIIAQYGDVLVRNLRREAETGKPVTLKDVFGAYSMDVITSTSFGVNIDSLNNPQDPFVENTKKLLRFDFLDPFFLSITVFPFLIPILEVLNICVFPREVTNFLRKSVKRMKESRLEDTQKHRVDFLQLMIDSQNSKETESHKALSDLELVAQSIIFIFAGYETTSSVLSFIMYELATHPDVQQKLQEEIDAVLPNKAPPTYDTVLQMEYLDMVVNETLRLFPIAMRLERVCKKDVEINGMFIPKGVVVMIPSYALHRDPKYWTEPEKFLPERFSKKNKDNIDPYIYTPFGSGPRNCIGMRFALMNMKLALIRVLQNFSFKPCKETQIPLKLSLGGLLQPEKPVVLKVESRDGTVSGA
Sequence of human CYP2C9 (P11712 whole entry): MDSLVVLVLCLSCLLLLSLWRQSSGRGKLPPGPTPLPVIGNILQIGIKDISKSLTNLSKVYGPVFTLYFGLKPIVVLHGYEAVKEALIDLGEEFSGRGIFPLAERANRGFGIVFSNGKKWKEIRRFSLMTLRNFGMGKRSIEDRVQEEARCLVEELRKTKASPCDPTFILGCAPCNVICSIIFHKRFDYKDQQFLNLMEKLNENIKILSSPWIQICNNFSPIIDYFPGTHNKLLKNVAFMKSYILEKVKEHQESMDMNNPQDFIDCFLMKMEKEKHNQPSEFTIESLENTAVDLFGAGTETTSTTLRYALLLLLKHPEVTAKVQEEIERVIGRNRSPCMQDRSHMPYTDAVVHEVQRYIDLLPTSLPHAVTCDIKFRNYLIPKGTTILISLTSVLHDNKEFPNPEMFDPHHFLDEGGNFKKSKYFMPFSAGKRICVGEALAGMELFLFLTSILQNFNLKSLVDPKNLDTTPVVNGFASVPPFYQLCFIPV
Sequence of human CYP2C19 (P33261 whole entry): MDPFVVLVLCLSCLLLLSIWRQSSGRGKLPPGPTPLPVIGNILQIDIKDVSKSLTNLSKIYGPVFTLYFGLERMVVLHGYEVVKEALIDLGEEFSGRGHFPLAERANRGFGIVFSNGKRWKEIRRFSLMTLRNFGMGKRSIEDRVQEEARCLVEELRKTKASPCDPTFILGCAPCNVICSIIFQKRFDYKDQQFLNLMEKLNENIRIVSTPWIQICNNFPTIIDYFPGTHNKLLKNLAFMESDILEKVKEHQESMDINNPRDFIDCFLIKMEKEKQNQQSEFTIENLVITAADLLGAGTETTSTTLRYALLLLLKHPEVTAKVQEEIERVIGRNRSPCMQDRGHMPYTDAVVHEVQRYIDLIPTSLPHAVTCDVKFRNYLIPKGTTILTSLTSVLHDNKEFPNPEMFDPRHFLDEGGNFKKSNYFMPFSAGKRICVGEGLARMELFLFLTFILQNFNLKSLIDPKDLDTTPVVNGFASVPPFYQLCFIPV

SMILES | AC50 [1] [µM] | AC50 [2] [µM] | AC50 [3] [µM] | AC50 [4] [µM] | CYP2D6 AC50 (half-maximal activity concentration) [5] | AC50 [5] [µM] | CYP2C9 AC50 (half-maximal activity concentration) [1] | CYP2C19 AC50 (half-maximal activity concentration) [2] | CYP1A2 AC50 (half-maximal activity concentration) [4] | CYP3A4 AC50 (half-maximal activity concentration) [3]
CCOC(=O)c1ccc(N(C)C)cc1 [Parbenate] | 31.9 | 21.6 | 47.9 | 4.68 | Inactive |  |  |  |  | 
O=C(OCCCCCOC(=O)c1ccccc1)c1ccccc1 [Pentane-1,5-diyl dibenzoate] | 10.5 | 48.1 | 26.9 | 8.29 | Inactive |  |  |  |  | 
CN1C(=O)N(c2ccccc2Br)Cc2cnc(Nc3ccc4c(c3)OCC(CO)O4)nc21 (stereo not shown) [PharmaGSID_48519] | 12.2 | 5.72 | 1.4 | 30.7 |  | 56.6 |  |  |  | 
CC(C)C(=O)OCCOc1ccccc1 [Phenoxyethyl isobutyrate] | 36 | 38.5 | 22.6 | 31.9 | Inactive |  |  |  |  | 
CCC(=O)OCCOc1ccccc1 [Phenoxyethyl propionate] |  |  | 47.1 | 55.5 | Inactive |  | Inconclusive | Inconclusive inhibitor |  | 
COC(=O)c1ccccc1C(=O)c1ccc(OCCN2CCCCC2)cc1.Cl [Pitofenone hydrochloride] |  |  | 15.5 |  |  | 14.9 | Inactive | Inactive | Inactive | 
CCCOc1ccc2c(c1)CC[C@@H]1[C@@H]2CC[C@]2(C)[C@@H](OC)CC[C@@H]12 [Promestriene] |  |  | 9.46 | 33.7 |  | 21.5 | Inconclusive inhibitor | Inconclusive inhibitor |  | 
CCCCCCCCS(=O)(=O)[O-].[Na+] [Sodium 1-octanesulfonate] | 44.1 |  | 33.1 |  | Inactive |  |  | Inactive | Inactive | 
CCCCCCCCc1ccc(S(=O)(=O)[O-])cc1.[Na+] [Sodium 4-octylbenzenesulfonate] | 76.8 |  | 63.9 |  | Inactive |  |  | Inactive | Inactive | 
C=Cc1ccc(S(=O)(=O)[O-])cc1.[Na+] [Sodium 4-vinylbenzenesulfonate] |  |  | 30.1 | 63.5 | Inactive |  | Inactive | Inactive |  | 
CCOC(=O)c1ccc(NC(=O)CN2CCCCC2)cc1 [Sulcaine] | 37.8 |  | 26.4 | 22.2 |  | 16.8 |  | Inactive |  | 
O=C(O)CC(C(=O)O)S(=O)(=O)O (stereo not shown) [Sulfosuccinic acid] |  | 11.9 | 43.2 | 33 |  | 60.6 | Inactive |  |  | 
CN(C)C1CSSSC1.O=C(O)C(=O)O [Thiocyclam oxalate] | 28.3 | 38.5 | 33 | 61 |  | 38.5 |  |  |  | 
Cc1ccc(C(C)OC(=O)[C@]2(C)CC[C@H](C(=O)O)C2(C)C)cc1.OCCNCCO (stereo partly shown) [Tocanfil] | 36.1 |  | 14.4 |  | Inactive |  |  | Inactive | Inactive | 
CCCCCCCCCCCC(=O)O.OCCN(CCO)CCO [Triethanolamine Laurate] | 115 | 135 | 89.2 |  | Inactive |  |  |  | Inconclusive inhibitor | 
O=C(OCCOCCOCCOC(=O)c1ccccc1)c1ccccc1 [Triethylene glycol dibenzoate] | 2.75 | 20.8 |  | 17.8 | Inconclusive inhibitor |  |  |  |  | Inactive
COC(=O)c1ccc(C(=O)OC)c(C(=O)OC)c1 [Trimethyl benzene-1,2,4-tricarboxylate] |  | 32.3 | 49.9 | 7.19 | Inactive |  | Inactive |  |  | 
